Measurements from patent publication US5492896A, “Pseudopeptides having an antiviral action” (Bayer Aktiengesellschaft, priority 1993, dated 1996).
Read-outs that look alike come from different tables or passages of the source. Values belong to the compound of their own block, whether it stands above or below them. Numbered stars: 1 amine (or outer) side, 2 acyl side, 3 side chain; on linkers, the order of the positions; unused ones are H or OH. Square brackets hold non-standard residues; d marks the D form. Peptide text beside a SMILES is read from it. * marks the point of attachment. Tos = Cc1ccc(S(=O)(=O)*)cc1; CO = O=C([*:1])[*:2]

Key:
HCMV (Davis strain) = experiment: Anti-HCMV screening test: spread of cytopathogenic effect in HELF cell cultures; format: cell-based, human cytomegalovirus; conditions: concentration causing 50% inhibition of the CPE, HELF cells, 6 days
Description: (§1) The anti-HCMV action was determined in a screening test system in 96-well microtitre plates with the aid of human embryonal lung fibroblasts (HELF) cell cultures. The influence of the substances on the spread of the cytopathogenic effect was determined in comparison with the reference substance ganciclovir ([…]®-sodium), a clinically approved anti-HCMV chemotherapeutic. The substances are dissolved in DMSO (dimethyl sulphoxide; 50 mM) and investigated on microtitre plates (96-well) in final concentrations of 1000-0.00048 μM (micromolar) in duplicate determinations (4 substances/plate). Toxic and cytostatic actions of the substances are also recorded here. After the appropriate dilutions of the substances (1:2) on the microtitre plate, a suspension of 50-100 HCMV-infected HELF cells and 3×10^4 non-infected HELF cells in Eagle's MEM (minimal essential medium) with 10% foetal calf serum is introduced into each cup and the plates are incubated at 37° C. in a CO2 incubating cabinet for 6 days. After this period, the cell lawn in the substance-free virus controls, starting from 50-100 infectious centres, is completely destroyed by the cytopathogenic effect (CPE) of the HCMV (100% CPE). After staining with neutral red and fixing with formalin/methanol, the plates are evaluated with the aid of a projection microscope (Plaque Viewer). […]

[1] = test system: human embryonal lung fibroblasts (HELF); experiment: Anticellular (toxic and cytostatic) action in the anti-HCMV screening test; format: cell-based
Description: as §1

HIV protease (HIV-1) = target: T1, HIV protease (HIV-1) (Human immunodeficiency virus type 1 group M subtype B, UniProt P04585); experiment: HIV-specific protease enzyme test (synthetic peptide cleavage, RP-HPLC); format: biochemical; conditions: 50% inhibition of protease activity; purified HIV protease, synthetic Gag cleavage-site peptide
T1 construct: purified HIV protease was incubated with a synthetic peptide
Description: This is documented by an HIV-specific protease enzyme test.
The results of the examples described below were determined by the HIV test system described in the following literature references [compare Hansen, J., Billich, S., Schulze, T., Sukrow, S. and Molling, K. (1988), EMBO Journal, volume 7, No. 6, pages 1785-1791]: purified HIV protease was incubated with a synthetic peptide which imitates a cutting site in the Gag precursor protein and represents an in vivo cleavage site of HIV protease. The cleavage products formed from the synthetic peptide were analysed by reverse phase high performance liquid chromatography (RP-HPLC). The IC50 values stated relate to the substance concentration which causes 50% inhibition of protease activity under the abovementioned test conditions.

IC50 (HCMV (Davis strain)): 1.95 µM
Compound: COC(=O)[C@H](Cc1ccccc1)NC(=O)N[C@@H](CCCNC(=N)NS(=O)(=O)c1ccc(C)cc1)C(=O)N[C@H](C(=O)N[C@@H](C=O)Cc1ccccc1)C(C)C [Example 4] ({OMe-Phe-CO}-Arg(Tos)-Val-[dF]-aldehyde)
CIC50 (μM) HELF [1]: 62.5 µM

Compound: CC(C)[C@H](NC(=O)[C@H](CCCNC(=N)N)NC(=O)N[C@@H](Cc1ccccc1)C(=O)O)C(=O)N[C@@H](C=O)Cc1ccccc1 [IX, (2R)-2-{Nα -[((1S)-1-Carboxy-2-phenyl-ethyl)aminocarbonyl]-S-arginyl-S-valinyl}amino-3-phenyl-propan-1-al] ({Phe-CO}-Arg-Val-[dF]-aldehyde)
IC50 (HIV protease (HIV-1)): 160 µM

IC50 (HCMV (Davis strain); Human betaherpesvirus 5, 144 h): 2 to 4 µM
Compound: Nc1nc(O)c2ncn(COC(CO)CO)c2n1 [Namevene ®, ganciclovir]
CIC50 (μM) HELF ([1]; maximum concentration which displays no evident anticellular action, HELF cells, 6 days): 125 µM

Compound: CC(C)[C@H](NC(=O)[C@H](CCCNC(=N)N)NC(=O)N[C@@H](Cc1ccccc1)C(=O)O)C(=O)N[C@H](C=O)Cc1ccccc1 [VIII, (2S)-2-{Nα -[((1S)-1-Carboxy-2-phenyl-ethyl)aminocarbonyl]-S-arginyl-S-valinyl}amino-3-phenyl-propan-1-al] ({Phe-CO}-Arg-Val-Phe-aldehyde)
IC50 (HIV protease (HIV-1)): 19 µM
